Two compounds from article PMC10597491 (PLOS ONE, 2023) can be followed below.

Each structure is given as a SMILES string. pIC50: −log10 of the molar value. Bridge positions count the residues as written; N and C are the ends. Peptide text beside a SMILES is read from it.

The target in one test is T1, human IL-7Rα ECD (Homo sapiens, UniProt P16871).
T1 construct: IL-7Rα(aa 21–236)-His6, Sino Biological Cat# 10975-H08H; His6 (C); purchased Sino Biological 10975-H08H
T1 sequence (P16871 21-236): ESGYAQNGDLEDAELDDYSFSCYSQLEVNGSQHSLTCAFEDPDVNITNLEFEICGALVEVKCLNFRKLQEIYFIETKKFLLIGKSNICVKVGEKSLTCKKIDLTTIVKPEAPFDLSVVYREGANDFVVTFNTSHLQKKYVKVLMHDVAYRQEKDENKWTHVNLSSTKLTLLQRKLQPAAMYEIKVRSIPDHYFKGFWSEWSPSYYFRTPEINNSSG
Nature of the test: Competition binding ELISA, human IL-7Rα ECD. To be noted: immobilized IL-7Rα-(His)6 ECD; tracer biotinylated MDK1248 pre-complexed with Neutravidin-HRP; 4°C; valency-sensitive format. The source says:
(§1) (A, B) Determination of IC50 values in a competition ELISA for compound binding to human and cyno IL-7Rα and γc. The assay format is IL-7Rα-(His)6-tagged ECD or Fc-γc ECD immobilized on 96-well plates. Tracers are C-terminal biotinylated forms of the reference IL-7Rα and γc peptide ligands, each pre-complexed with Neutravidin-HRP (NA-HRP). (C, D) Label-free measurement of the equilibrium dissociation constant (KD) for peptide binding to IL-7Rα and γc extracellular domains with peptides was performed by biolayer interferometry as detailed in methods. Red lines depict 1:1 binding fit from Gator™ software. Blue lines represent individual BLI sensogram data taken every 0.1 seconds.
(§2) Binding was determined using a competition binding ELISA. Microtiter plates (Immulon 4HBX flat bottom 96-well) were coated with 50 μL of […] human ECDs: IL-7Rα(aa 21–236)-His6, Sino Biological Cat# 10975-H08H; cynomolgus IL-7Rα(aa 21–235)-His6, Sino Biological Cat# 90332-C08H; human IL-2Rα(aa 23–254)-Fc, Acro Cat# ILG-H5256; cynomolgus IL-2Rα(aa 23–254)-Fc, made in-house, in PBS overnight at 4°C. […] Plates were washed with cold wash buffer, and bound tracer was detected using TMB One Component HRP substrate and Stop Solution (Surmodics Cat# TMBW-1000-01 and LSTP-0100-01). Absorbance at 450 nm was read using Agilent BioTek Synergy HTX Multimode Reader.
For orientation: An ELISA detects its analyte on a solid surface through an enzyme-linked reagent.

A further test has as its target T2, cynomolgus IL-7Rα (Macaca fascicularis, UniProt Q38IC7).
T2 construct: cynomolgus IL-7Rα(aa 21–235)-His6, Sino Biological Cat# 90332-C08H; His6 (C); purchased Sino Biological 90332-C08H
T2 sequence (Q38IC7 21-235): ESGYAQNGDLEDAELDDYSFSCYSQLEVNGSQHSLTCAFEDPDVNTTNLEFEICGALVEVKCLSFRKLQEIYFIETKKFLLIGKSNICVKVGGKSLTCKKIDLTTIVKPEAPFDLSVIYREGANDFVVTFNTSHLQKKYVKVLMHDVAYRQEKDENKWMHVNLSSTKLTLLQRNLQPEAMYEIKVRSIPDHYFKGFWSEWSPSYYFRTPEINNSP
Nature of the test: Competition binding ELISA, cynomolgus IL-7Rα ECD. To be noted: immobilized cynomolgus IL-7Rα-His6 ECD; biotinylated peptide/NA-HRP tracer; read-out: Competition ELISA IC50, IL-7Rα Cyno.
Excerpt: as §1, §2

A further test has as its target T3, IL-7R (Homo sapiens, UniProt P16871+P31785).
T3 construct: constructed to express full-length human IL-7Rα in TF-1 cells; TF-1 cells, which naturally express γc, but not IL-7Rα; expressed in transfected cells
T3 sequence (P16871 21-459): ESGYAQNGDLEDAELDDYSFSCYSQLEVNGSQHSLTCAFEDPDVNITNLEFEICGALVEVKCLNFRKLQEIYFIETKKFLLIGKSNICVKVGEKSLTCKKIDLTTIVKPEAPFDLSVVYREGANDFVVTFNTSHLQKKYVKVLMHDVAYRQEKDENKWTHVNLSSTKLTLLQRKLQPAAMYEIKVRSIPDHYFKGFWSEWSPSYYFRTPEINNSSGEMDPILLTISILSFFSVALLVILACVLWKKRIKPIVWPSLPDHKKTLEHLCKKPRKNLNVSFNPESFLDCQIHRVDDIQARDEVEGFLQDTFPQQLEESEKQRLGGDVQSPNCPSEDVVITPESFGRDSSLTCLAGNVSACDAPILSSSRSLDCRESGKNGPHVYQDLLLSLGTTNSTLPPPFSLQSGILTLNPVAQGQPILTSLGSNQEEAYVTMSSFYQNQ
T3 sequence (P31785 23-369): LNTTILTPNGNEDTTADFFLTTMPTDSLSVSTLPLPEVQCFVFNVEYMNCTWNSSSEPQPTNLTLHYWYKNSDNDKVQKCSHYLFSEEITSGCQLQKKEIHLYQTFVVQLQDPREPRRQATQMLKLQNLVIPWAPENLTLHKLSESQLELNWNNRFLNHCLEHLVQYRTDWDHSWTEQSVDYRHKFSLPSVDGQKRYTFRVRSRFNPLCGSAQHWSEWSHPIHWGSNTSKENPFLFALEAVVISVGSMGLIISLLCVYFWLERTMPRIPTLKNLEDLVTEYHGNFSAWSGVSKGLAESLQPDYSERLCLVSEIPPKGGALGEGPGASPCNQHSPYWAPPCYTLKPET
In words: STAT5 phosphorylation in TF1-7Rα cells. Format: cell-based. To be noted: TF1-7Rα cells, 10 μM peptide alone. The protocol: The synthetic peptide MDK1472 was designed to bind simultaneously to IL-7Rα and γc subunits and was tested for its ability to induce phosphorylation of STAT5, the primary IL-7R signaling pathway.
Reactions were stopped and cell lysates prepared for pSTAT5 analysis.
(§3) Cells were deprived of growth factors by overnight incubation at 5×10^5 cells/mL in starvation medium (RPMI 1640 + 4.5 g/L glucose + 0.2% FBS + 2 mM L-glutamine + 1 mM NaPyr + 10 mM HEPES + 0.5x penicillin-streptomycin with no cytokine supplement) in T75 flasks. For assays, cells were plated in 96-well V-bottom plates at 2×10^5 cells/well. Three-fold serial dilutions in starvation medium of the test compounds or cytokine were added to the cells and incubated for 30 min at 37°C. Following incubation, cell extracts were prepared by adding a mixture of 10x Cell Lysis Buffer (Cell Signaling Technology Cat# 9803) and 100x HALT Phosphatase and Protease Inhibitor Cocktail (Thermo Fisher Cat# 78442) directly to the wells. The plates were agitated at 25°C for 5 min to prepare cell extracts for immediate use or to be stored at -80°C until assay. Detection of pSTAT5 was performed using a PathScan® Phospho-Stat5 (pTyr694) Sandwich ELISA Kit (Cell Signaling Technology Cat# 7113). Detection of pSTAT6 was performed using a PathScan® Phospho-Stat6 (pTyr641) Sandwich ELISA Kit (Cell Signaling Technology Cat# 7275). Detection of pSTAT3 was performed using a PathScan® Phospho-Stat3 (pTyr705) Sandwich ELISA Kit (Cell Signaling Technology Cat# 7300). Cell lysates were added to pre-coated ELISA wells and incubated at 4°C overnight. Primary and secondary antibody incubations and wash steps were performed according to the protocols supplied by the manufacturer. Assays were developed using TMB substrate (Surmodics Cat# TMBW-1000-01) for 5–10 min at 25°C and the reaction was stopped using STOP solution (Surmodics Cat# LSTP-1000-01).

The target in a further test is T4, IL-2βγc receptor (Homo sapiens, UniProt P31785).
T4 construct: pcDNA3.1 expression vector encoding full-length IL-2Rβ, IL-7Rα, IL-9Rα, or IL-21Rα; TF-1 cells naturally express γc and IL-4Rα; expressed in transfected cells
T4 sequence (P31785 23-369): T3 sequence (P31785 23-369)
Nature of the test: IL-2-induced pSTAT5 in TF-1 cells expressing IL-2/15Rβ. The format is cell-based. The protocol:
as §3, with “Primary and secondary antibody incubations and wash steps were performed according to the protocols supplied by the manufacturer. Assays were developed using TMB substrate (Surmodics Cat# TMBW-1000-01) for 5–10 min at 25°C and the reaction was stopped using STOP solution (Surmodics Cat# LSTP-1000-01).” left out

The target of a further test is T5, human γc ECD (Homo sapiens, UniProt P31785).
T5 construct: human IL-2Rα(aa 23–254)-Fc, Acro Cat# ILG-H5256; purchased Acro ILG-H5256
T5 sequence (P31785 23-254): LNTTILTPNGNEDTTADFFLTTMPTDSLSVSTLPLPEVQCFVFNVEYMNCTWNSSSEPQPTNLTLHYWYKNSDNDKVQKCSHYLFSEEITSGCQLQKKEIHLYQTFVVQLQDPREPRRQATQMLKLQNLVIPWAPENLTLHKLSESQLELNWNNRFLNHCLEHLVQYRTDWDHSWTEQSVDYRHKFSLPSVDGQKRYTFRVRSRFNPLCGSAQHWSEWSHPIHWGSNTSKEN
Nature of the test: Competition binding ELISA, human γc ECD. To be noted: immobilized Fc-γc ECD; tracer biotinylated MDK1188 pre-complexed with Neutravidin-HRP; 4°C.
Excerpt: as §1, §2

What is called pIC50 is the negative decadic logarithm of the IC50, by convention in mol/L. For the compound `CC[C@H](C)[C@H](NC(=O)CNC(=O)[C@H](Cc1c[nH]c2ccccc12)NC(=O)CN)C(=O)N1CCC[C@H]1C(=O)N[C@@H](Cc1c[nH]c2ccccc12)C(=O)N[C@H]1CSSC[C@@H](C(=O)N[C@@H](C)C(=O)N[C@@H](Cc2c[nH]c3ccccc23)C(=O)N[C@@H](CC(C)C)C(=O)NCC(=O)N[C@@H](CCCCN)C(=O)N[C@@H](Cc2c[nH]cn2)C(=O)NCC(=O)NCC(=O)O)NC(=O)[C@H](CCC(N)=O)NC(=O)[C@H](CC(C)C)NC(=O)[C@H](CO)NC(=O)CNC(=O)[C@@H]2CCCN2C(=O)[C@H](CC(=O)O)NC(=O)[C@H](CC(C)C)NC(=O)[C@H]([C@@H](C)O)NC1=O` [MDK1248] (H-GWGIPWCTLDPGSLQCAWLGKHGG-OH; disulfide 7-16), the pIC50 at human IL-7Rα ECD was 6.82; on cynomolgus IL-7Rα, 7.04. In addition, on IL-7R, the “induction of pSTAT5 by individual peptide ligands” value is reported as “no induction of pSTAT5”.

On to `CC(C)C[C@@H]1NC(=O)[C@H](CCC(=O)O)NC(=O)[C@H](C(C)C)NC(=O)CNC(=O)[C@H](CCC(=O)O)NC(=O)[C@H](Cc2c[nH]c3ccccc23)NC(=O)[C@H](CC(=O)O)NC(=O)[C@H](CCC(N)=O)NC(=O)[C@@H](NC(=O)[C@@H](NC(=O)[C@@H](NC(=O)CNC(=O)CN)C(C)C)C(C)C)CSSC[C@@H](C(=O)N[C@@H](Cc2c[nH]c3ccccc23)C(=O)N[C@@H](CCC(N)=O)C(=O)NCC(=O)NCC(=O)O)NC1=O` [MDK1188], for which the negative logarithm of the IC50 (pIC50) was 5.80 at IL-2βγc receptor and 7.62 at human γc ECD. Besides, on IL-7R, the “induction of pSTAT5 by individual peptide ligands” value is listed as “no induction of pSTAT5”.
